Reference: patent US10646489B2, “Compositions and methods for increasing energy metabolism” (NuSirt Sciences, Inc., priority 2012, dated 2020)

Columns and labels:
C2C12 myotubes [1] = experiment: Fatty acid oxidation (O2 consumption response to palmitate injection) in C2C12 myotubes / muscle cells; assay type: cell-based; conditions: for increase in myotube fat oxidation, with HMB: PDE 5 inhibitor 1 nM with HMB (5 μM); for increase in myotube fat oxidation, with leucine: PDE 5 inhibitor 1 nM with leucine (0.5 mM); for increase in myotube fat oxidation, with resveratrol: PDE 5 inhibitor 1 nM with resveratrol (200 nM)
Method: Fatty acid oxidation was measured as O2 consumption response to palmitate injection and is expressed as % change from pre-injection baseline. […] Data expressed as % change from control value. *p=0.013; **p=0.015. The output of the pathways can be measured using one or more methods, disclosed herein and/or known in the art. […] Mitochondrial biogenesis can be measured using a mitochondrial probe by using fluorescence. AMPK activity can be determined by measuring AMPK phosphorylation via an ELISA assay or by Western blot. Sirt1 activity can be determined by measuring deacetylation of a substrate, which can be detected using a fluorophore. […] Treatment with 0.5 mM leucine corresponds to a circulating level of the same molarity achieved by administering about 1,125 mg of dietary leucine to a human subject. Treatment with 0.25 mM leucine corresponds to a circulating level of the same molarity achieved by administering about 300 mg of dietary leucine to a human subject.

[2] = Dose-response of the PDE inhibitor alone (concentration without effect); assay type: cell-based
Method: (§1) Vinopocetine, which is a PDE 1 inhibitor, was tested in combination with leucine, HMB, and resveratrol for its effects on energy metabolism.
(§2) Two PDE 3 inhibitors were studied, amrinone and cilostamide, in combination with leucine and HMB for their effects on energy metabolism.
Two PDE 4 inhibitors were studied, rolipram and YM796, in combination with leucine and HMB for their effects on energy metabolism.
(§3) Icariin is a naturally occurring flavonol with significant PDE 5 inhibitory activity.

C2C12 myotubes [3] = experiment: Mitochondrial biogenesis measured as mitochondrial mass in C2C12 myotubes; assay type: cell-based
Method: (§4) The output of the pathways can be measured using one or more methods, disclosed herein and/or known in the art. […] Mitochondrial biogenesis can be measured using a mitochondrial probe by using fluorescence. AMPK activity can be determined by measuring AMPK phosphorylation via an ELISA assay or by Western blot. Sirt1 activity can be determined by measuring deacetylation of a substrate, which can be detected using a fluorophore. […] Treatment with 0.5 mM leucine corresponds to a circulating level of the same molarity achieved by administering about 1,125 mg of dietary leucine to a human subject. Treatment with 0.25 mM leucine corresponds to a circulating level of the same molarity achieved by administering about 300 mg of dietary leucine to a human subject.

[4] = 25 mg/kg diet; ~4 mg/kg body weight; previous published studies; cited from earlier work
C2C12 myotubes [5] = experiment: Nitric oxide production in C2C12 myotubes; assay type: cell-based; conditions: HMB or resveratrol, each, p<0.0001
Method: Treatment with 0.5 mM leucine corresponds to a circulating level of the same molarity achieved by administering about 1,125 mg of dietary leucine to a human subject. Treatment with 0.25 mM leucine corresponds to a circulating level of the same molarity achieved by administering about 300 mg of dietary leucine to a human subject.

[6] = Synergy on energy metabolism (fat oxidation, glucose utilization), cell type not stated; assay type: cell-based
Method: as §1, §2, §3

3T3-L1 adipocytes [7] = experiment: Fatty acid oxidation in 3T3-L1 adipocytes / adipocytes; assay type: cell-based; conditions: p<0.05
Excerpt: as §4, with “Data expressed as % change from control value.*p<0.05. The” for “The”

[8] = Substitution of leucine by other branched chain amino acids in the synergy with a PDE5 inhibitor
Excerpt: Branched chain amino acids that can be combined with a PDE-5 inhibitor have aliphatic side chains with a branch carbon atom that is bound to two or more other atoms. The other atoms may be carbon atoms. Examples of branched chain amino acids include leucine, isoleucine, and valine. Branched chain amino acids may also include other compounds, such as 4-hydroxyisoleucine. In some embodiments, the compositions are substantially free of one or more, or all of non-branched chain amino acids. In some embodiments, the compositions are substantially free of one or more, or all of non-branched chain amino acids in free amino acid form. For example, the compositions can be substantially free of […], and/or tyrosine. The compositions can be substantially free of […], and/or tyrosine in free amino acid form. In some embodiments, the branched chain amino acid is leucine. In some embodiments, the compositions may be substantially free of isoleucine and/or valine, which may be in free form. The synergistic effects between leucine and a PDE5 inhibitor, as described herein, are not observed when leucine is substituted with isoleucine and valine. Not wishing to be bound by any particular theory, isoleucine, valine, and leucine compete with each other for transport and/or absorption, and inclusion of isoleucine and valine in a composition would reduce the efficacy of any leucine in the composition. […]

AMPK [9] = experiment: AMPK activation in adipocytes; assay type: cell-based; conditions: rolipram 0.1 nM combinations
Excerpt: (§5) The output of the pathways can be measured using one or more methods, disclosed herein and/or known in the art. For example, fatty acid oxidation can be determined by measuring oxygen consumption, or 3H-labeled palmitate oxidation. Mitochondrial biogenesis can be measured using a mitochondrial probe by using fluorescence. AMPK activity can be determined by measuring AMPK phosphorylation via an ELISA assay or by Western blot. Sirt1 activity can be determined by measuring deacetylation of a substrate, which can be detected using a fluorophore.
(§6) Two PDE 4 inhibitors were studied, rolipram and YM796, in combination with leucine and HMB for their effects on energy metabolism. Dose-response indicate concentrations of 0.1 nM or below of rolipram and YM796 exert no effect; accordingly, this was the concentration used in these experiments. […] However, no synergy was found for glucose utilization or AMPK activation.

AMPK [10] = experiment: AMPK activity / phosphorylation in muscle cells; assay type: cell-based
Excerpt: as §5, §6

3T3-L1 adipocytes [11] = experiment: Glucose utilization (extracellular acidification response to glucose injection) in 3T3-L1 adipocytes / adipocytes; assay type: cell-based
Method: (§7) Glucose utilization was measured as extracellular acidification response to glucose injection. *p=0.05. […] Treatment with 0.5 mM leucine corresponds to a circulating level of the same molarity achieved by administering about 1,125 mg of dietary leucine to a human subject. Treatment with 0.25 mM leucine corresponds to a circulating level of the same molarity achieved by administering about 300 mg of dietary leucine to a human subject.

C2C12 myotubes [12] = experiment: Glucose utilization (extracellular acidification response to glucose injection) in C2C12 myotubes / muscle cells; assay type: cell-based
Method: as §7, with “*p=0.04.” for “*p=0.05.”

diet-induced obese mouse = experiment: Post-prandial glucose, insulin and HOMAIR in the diet-induced obese mouse; assay type: in vivo; conditions: 14-day treatment
Method: The interactive effects of icariin, a flavanol with specific PDE5 inhibitory properties, on glycemia and insulin sensitivity were assessed in the diet-induced obese mouse, which can be used as a murine model of type 2 diabetes. Male C57/BL6 mice were placed on standard low-fat chow (control; 10% energy from fat) or high fat (60% energy from fat, Research Diets # D12492, Research Diets, Inc, New Brunswick, N.J.) at six weeks of age to induce insulin resistance. […], with 10 animals per group: Low fat diet (LFD) control; High fat diet (HFD) control; HFD+leucine (24 g/kg diet, a two-fold increase over control levels)1 HFD+leucine (24 g/kg diet)+icariin (25 mg/kg diet). […] Mice were fasted overnight (˜16 hours) prior to measurement of fasting blood glucose, insulin and glucose tolerance. Glucose tolerance was determined following measurement of fasting glucose via intraperitoneal administration of glucose (1.2 g/kg body weight) followed by blood glucose measurement at 15, 30, 60, 90 and 120 minutes. Post-prandial glucose was measured within one hour of cessation of eating. Insulin tolerance was measured via an insulin tolerance test (ITT). Food was removed 4-6 hours prior to ITT, and baseline blood glucose measured. The mice were then injected intraperitoneally with insulin (1.2 U/kg body weight) and blood glucose was measured 15, 30, 60, 90 and 120 minutes following insulin injection. The homeostasis model assessment of insulin resistance (HOMAIR) was used as a screening index of changes in insulin sensitivity. HOMAIR is calculated via standard formula from fasting plasma insulin and glucose as follows: HOMAIR=[Insulin (uU/mL)×glucose (mM)]/22.5. The plasma glucose and insulin concentrations were measured using the Glucose Assay Kit from Biovision (Milpitas, Calif.) and the Insulin kit from Millipore (Billerica, Mass.), respectively. CRP levels in plasma were determined by ELISA (CRP: Life Diagnostics, West Chester, Pa.).

[13] = vinpocetine 0.1 nM with either leucine (0.5 mM) or HMB (5 μM)

Molecule: COc1ccc(-c2oc3c(CC=C(C)C)c(O[C@@H]4O[C@H](CO)[C@@H](O)[C@H](O)[C@H]4O)cc(O)c3c(=O)c2O[C@@H]2O[C@@H](C)[C@H](O)[C@@H](O)[C@H]2O)cc1 [icariin]
- increase in myotube fat oxidation, with HMB (C2C12 myotubes [1]; C2C12 myotubes): 75%
- increase in myotube fat oxidation, with leucine (C2C12 myotubes [1]; C2C12 myotubes): 77%
- increase in myotube fat oxidation, with resveratrol (C2C12 myotubes [1]; C2C12 myotubes): 157%
- concentration that exerts no effect (dose-response) [2]: below 1 nM
- synergy with both leucine and HMB to up regulate mitochondrial biogenesis (C2C12 myotubes [3]; icariin 1 nM, FIG. 13, p<0.001): significant synergy
- effect of the selected level [4]: no effect
- effect on nitric oxide production (C2C12 myotubes [5]; icariin with leucine): modest, significant effects
- synergy with respect to glucose utilization ([6]; icariin 1 nM): did not exhibit significant synergy

Molecule: CN(C(=O)CCCOc1ccc2[nH]c(=O)ccc2c1)C1CCCCC1 [cilostamide]
- increase in fat oxidation (C2C12 myotubes [1]; muscle cells, cilostamide 10 nM combined with either leucine (0.5 mM) or HMB (5 μM), p<0.05): 92%
- increase in fat oxidation (3T3-L1 adipocytes [7]; adipocytes, cilostamide 10 nM combined with either leucine (0.5 mM) or HMB (5 μM)): 58%

Molecule: CC[C@H](C)[C@H](N)C(=O)O [isoleucine]
- synergistic effects with a PDE5 inhibitor when substituted for leucine [8]: not observed

Molecule: COc1ccc(C2CNC(=O)C2)cc1OC1CCCC1 (stereo not drawn) [rolipram]
- synergistic effect with leucine, HMB or resveratrol with respect to fat oxidation (C2C12 myotubes [1]; muscle cells, rolipram 0.1 nM): no synergistic effect
- synergy for AMPK activation (AMPK [9]): no synergy
- synergistic effect with leucine, HMB or resveratrol with respect to AMPK activity (AMPK [10]; muscle cells, rolipram 0.1 nM): no synergistic effect
- AMPK phosphorylation (AMPK [10]; rolipram alone, not augmented by leucine or HMB): activated
- synergy for glucose utilization (3T3-L1 adipocytes [11]; adipocytes, rolipram 0.1 nM combinations): no synergy
- synergistic effect with leucine, HMB or resveratrol with respect to glucose utilization (C2C12 myotubes [12]; muscle cells, rolipram 0.1 nM): no synergistic effect

Molecule: CCOC(=O)C1=C[C@]2(CC)CCCN3CCc4c(n1c1ccccc41)[C@@H]32 [Vinpocetine]
- concentration that exerts no effect (dose-response) [2]: ≤ 0.1 nM
- increase in glucose utilization (3T3-L1 adipocytes [11]; adipocytes, vinpocetine 0.1 nM with low-dose resveratrol (200 nM), p=0.03): 70%
- synergy with respect to fat oxidation [6, 13]: no synergy
- synergy with respect to glucose utilization [6, 13]: no synergy

Molecule: CCCc1nn(C)c2c(=O)[nH]c(-c3cc(S(=O)(=O)N4CCN(C)CC4)ccc3OCC)nc12 [sildenafil]
- increase in myotube fat oxidation, with HMB (C2C12 myotubes [1]; C2C12 myotubes): 203%
- increase in myotube fat oxidation, with leucine (C2C12 myotubes [1]; C2C12 myotubes): 232%
- increase in myotube fat oxidation, with resveratrol (C2C12 myotubes [1]; C2C12 myotubes): no interaction
- fatty acid oxidation, agent alone (C2C12 myotubes [1]; C2C12 myotubes, sildenafil 1 nM (change from baseline) or leucine 0.5 mM alone): about 50%
- concentration that exerts no effect (dose-response) [2]: below 1 nM
- synergy of HMB or resveratrol with sildenafil on glucose utilization (3T3-L1 adipocytes [11]; 3T3-L1 adipocytes): neither HMB nor resveratrol exerted any significant synergy
- increase in nitric oxide production (C2C12 myotubes [5]; sildenafil (1 nM) with leucine): 15-30%
- augmentation of myotube glucose utilization, with resveratrol (C2C12 myotubes [12]; C2C12 myotubes, sildenafil 1 nM with resveratrol 200 nM, p=0.04): 53%

Molecule: Nc1cc(-c2ccncc2)c[nH]c1=O [amrinone]
- synergy with either leucine or HMB (energy metabolism) ([6]; amrinone 10 nM): no significant synergy

Molecule: Oc1ccc(/C=C/c2cc(O)cc(O)c2)cc1 [resveratrol, 3,5,4′-Trihydroxy-trans-stilbene]
- effect of resveratrol on the sildenafil interaction (mitochondrial biomass) (C2C12 myotubes [3]; FIG. 12): no significant effect
- interaction of resveratrol with icariin (mitochondrial biogenesis) (C2C12 myotubes [3]; FIG. 13): did not exhibit a significant interaction

Molecule: insulin
- decrease in HOMAIR vs. untreated HFD mice (diet-induced obese mouse): ~40%
- decrease in circulating (post-prandial) insulin vs. untreated HFD mice (diet-induced obese mouse): ~30%

Molecule: CC(C)(O)CC(=O)O [HMB, beta-hydroxymethylbutyrate]
- fatty acid oxidation, agent alone (3T3-L1 adipocytes [7]; 3T3-L1 adipocytes, leucine 0.5 mM or HMB 5 μM alone): 29%

Molecule: CC(C)[C@H](N)C(=O)O [valine]
- synergistic effects with a PDE5 inhibitor when substituted for leucine [8]: not observed
